{"source": "PubChem BioAssay (NCI)", "assay_in_all_cases": "growth of human tumour cells (NCI), 384-well format", "key": {"[1]": {"tested_on": "SNB-19 CNS"}, "[2]": {"tested_on": "A498 renal"}, "[3]": {"tested_on": "SW-620 colon"}, "[4]": {"tested_on": "NCI-H522 lung"}, "[5]": {"tested_on": "U251 glioblastoma"}, "[6]": {"tested_on": "SF-295 CNS"}, "[7]": {"tested_on": "OVCAR-5 ovarian"}, "[8]": {"tested_on": "MDA-MB-468 breast"}, "[9]": {"tested_on": "HCT-15 colon"}, "[10]": {"tested_on": "MOLT-4 leukemia"}, "[11]": {"tested_on": "UACC-257 melanoma"}, "[12]": {"tested_on": "UO-31 renal"}, "[13]": {"tested_on": "K-562 leukemia"}, "[14]": {"tested_on": "MDA-MB-231 breast"}, "[15]": {"tested_on": "OVCAR-4 ovarian"}, "[16]": {"tested_on": "HL-60(TB) leukemia"}, "[17]": {"tested_on": "RPMI-8226 leukemia"}, "[18]": {"tested_on": "SK-OV-3 ovarian"}, "[19]": {"tested_on": "NCI-H460 NSCLC"}, "[20]": {"tested_on": "HCT-116 colon"}, "[21]": {"tested_on": "SF-539 CNS"}, "[22]": {"tested_on": "SN12C renal"}, "[23]": {"tested_on": "MALME-3M melanoma"}, "[24]": {"tested_on": "EKVX NSCLC"}, "[25]": {"tested_on": "OVCAR-3 ovarian"}, "[26]": {"tested_on": "MDA-MB-435 melanoma"}, "[27]": {"tested_on": "BT-549 breast"}, "[28]": {"tested_on": "IGROV1 ovarian"}, "[29]": {"tested_on": "SR leukemia"}, "[30]": {"tested_on": "NCI/ADR-RES ovarian"}, "[31]": {"tested_on": "MCF7 breast"}, "[32]": {"tested_on": "SK-MEL-2 melanoma"}, "[33]": {"tested_on": "KM12 colon"}, "[34]": {"tested_on": "T-47D breast"}, "[35]": {"tested_on": "SK-MEL-5 melanoma"}, "[36]": {"tested_on": "UACC-62 melanoma"}, "[37]": {"tested_on": "OVCAR-8 ovarian"}, "[38]": {"tested_on": "NCI-H23 lung"}, "[39]": {"tested_on": "HOP-92 NSCLC"}, "[40]": {"tested_on": "CCRF-CEM leukemia"}, "[41]": {"tested_on": "HS 578T breast"}, "[42]": {"tested_on": "ACHN renal"}, "[43]": {"tested_on": "SF-268 CNS"}, "[44]": {"tested_on": "NCI-H322M lung"}, "[45]": {"tested_on": "M14 melanoma"}, "[46]": {"tested_on": "SK-MEL-28 melanoma"}, "[47]": {"tested_on": "NCI-H226 lung"}}, "note": "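Abbreviation: GI50, concentration required for 50% inhibition of growth. At the TGI there is no net growth.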", "data": [{"smiles": "CCNC(=O)c1cc2c(-c3cc(C(C)(C)O)ccc3Oc3c(C)cc(F)cc3C)cn(C)c(=O)c2[nH]1", "values": [{"measurement": "GI50", "setting": "[1]", "value": 2010, "unit": "nM"}, {"measurement": "TGI", "setting": "[1]", "value": 13200, "unit": "nM"}, {"measurement": "GI50", "setting": "[2]", "value": 1870, "unit": "nM"}, {"measurement": "TGI", "setting": "[2]", "value": 13000, "unit": "nM"}, {"measurement": "GI50", "setting": "[3]", "value": 2970, "unit": "nM"}, {"measurement": "TGI", "setting": "[3]", "value": 15600, "unit": "nM"}, {"measurement": "GI50", "setting": "[4]", "value": 17.6, "unit": "nM"}, {"measurement": "TGI", "setting": "[4]", "value": 933, "unit": "nM"}, {"measurement": "GI50", "setting": "[5]", "value": 2540, "unit": "nM"}, {"measurement": "TGI", "setting": "[5]", "value": 10900, "unit": "nM"}, {"measurement": "GI50", "setting": "[6]", "value": 3000, "unit": "nM"}, {"measurement": "TGI", "setting": "[6]", "value": 11100, "unit": "nM"}, {"measurement": "GI50", "setting": "[7]", "value": 1030, "unit": "nM"}, {"measurement": "TGI", "setting": "[7]", "value": 9890, "unit": "nM"}, {"measurement": "GI50", "setting": "[8]", "value": 358, "unit": "nM"}, {"measurement": "TGI", "setting": "[8]", "value": 2080, "unit": "nM"}, {"measurement": "GI50", "setting": "[9]", "value": 1600, "unit": "nM"}, {"measurement": "TGI", "setting": "[9]", "value": 5230, "unit": "nM"}, {"measurement": "GI50", "setting": "[10]", "value": 432, "unit": "nM"}, {"measurement": "TGI", "setting": "[10]", "value": 1900, "unit": "nM"}, {"measurement": "GI50", "setting": "[11]", "value": 748, "unit": "nM"}, {"measurement": "TGI", "setting": "[11]", "value": 10400, "unit": "nM"}, {"measurement": "GI50", "setting": "[12]", "value": 2230, "unit": "nM"}, {"measurement": "TGI", "setting": "[12]", "value": 13000, "unit": "nM"}, {"measurement": "GI50", "setting": "[13]", "value": 879, "unit": "nM"}, {"measurement": "TGI", "setting": "[13]", "value": 10700, "unit": "nM"}, {"measurement": "GI50", "setting": "[14]", "value": 505, "unit": "nM"}, {"measurement": "TGI", "setting": "[14]", "value": 12100, "unit": "nM"}, {"measurement": "GI50", "setting": "[15]", "value": 201, "unit": "nM"}, {"measurement": "TGI", "setting": "[15]", "value": 870, "unit": "nM"}, {"measurement": "GI50", "setting": "[16]", "value": 145, "unit": "nM"}, {"measurement": "TGI", "setting": "[16]", "value": 618, "unit": "nM"}, {"measurement": "GI50", "setting": "[17]", "value": 12.5, "unit": "nM"}, {"measurement": "TGI", "setting": "[17]", "value": 693, "unit": "nM"}, {"measurement": "GI50", "setting": "[18]", "value": 412, "unit": "nM"}, {"measurement": "TGI", "setting": "[18]", "value": 3740, "unit": "nM"}, {"measurement": "GI50", "setting": "[19]", "value": 2870, "unit": "nM"}, {"measurement": "TGI", "setting": "[19]", "value": 12400, "unit": "nM"}, {"measurement": "GI50", "setting": "[20]", "value": 1370, "unit": "nM"}, {"measurement": "TGI", "setting": "[20]", "value": 10300, "unit": "nM"}, {"measurement": "GI50", "setting": "[21]", "value": 1530, "unit": "nM"}, {"measurement": "TGI", "setting": "[21]", "value": 10100, "unit": "nM"}, {"measurement": "GI50", "setting": "[22]", "value": 3230, "unit": "nM"}, {"measurement": "TGI", "setting": "[22]", "value": 13600, "unit": "nM"}, {"measurement": "GI50", "setting": "[23]", "value": 1150, "unit": "nM"}, {"measurement": "TGI", "setting": "[23]", "value": 3360, "unit": "nM"}, {"measurement": "GI50", "setting": "[24]", "value": 3230, "unit": "nM"}, {"measurement": "TGI", "setting": "[24]", "value": 13900, "unit": "nM"}, {"measurement": "GI50", "setting": "[25]", "value": 602, "unit": "nM"}, {"measurement": "TGI", "setting": "[25]", "value": 2460, "unit": "nM"}, {"measurement": "GI50", "setting": "[26]", "value": 5220, "unit": "nM"}, {"measurement": "TGI", "setting": "[26]", "value": 19100, "unit": "nM"}, {"measurement": "GI50", "setting": "[27]", "value": 298, "unit": "nM"}, {"measurement": "TGI", "setting": "[27]", "value": 1920, "unit": "nM"}, {"measurement": "GI50", "setting": "[28]", "value": 508, "unit": "nM"}, {"measurement": "TGI", "setting": "[28]", "value": 2290, "unit": "nM"}, {"measurement": "GI50", "setting": "[29]", "value": 32.8, "unit": "nM"}, {"measurement": "TGI", "setting": "[29]", "value": 1300, "unit": "nM"}, {"measurement": "GI50", "setting": "[30]", "value": 12300, "unit": "nM"}, {"measurement": "TGI", "setting": "[30]", "value": 26100, "unit": "nM"}, {"measurement": "GI50", "setting": "[31]", "value": 48.4, "unit": "nM"}, {"measurement": "TGI", "setting": "[31]", "value": 1820, "unit": "nM"}, {"measurement": "GI50", "setting": "[32]", "value": 139, "unit": "nM"}, {"measurement": "TGI", "setting": "[32]", "value": 2850, "unit": "nM"}, {"measurement": "GI50", "setting": "[33]", "value": 1420, "unit": "nM"}, {"measurement": "TGI", "setting": "[33]", "value": 11200, "unit": "nM"}, {"measurement": "GI50", "setting": "[34]", "value": 1310, "unit": "nM"}, {"measurement": "TGI", "setting": "[34]", "value": 8300, "unit": "nM"}, {"measurement": "GI50", "setting": "[35]", "value": 1270, "unit": "nM"}, {"measurement": "TGI", "setting": "[35]", "value": 3680, "unit": "nM"}, {"measurement": "GI50", "setting": "[36]", "value": 152, "unit": "nM"}, {"measurement": "TGI", "setting": "[36]", "value": 4060, "unit": "nM"}, {"measurement": "GI50", "setting": "[37]", "value": 1120, "unit": "nM"}, {"measurement": "TGI", "setting": "[37]", "value": 2550, "unit": "nM"}, {"measurement": "GI50", "setting": "[38]", "value": 725, "unit": "nM"}, {"measurement": "TGI", "setting": "[38]", "value": 2810, "unit": "nM"}, {"measurement": "GI50", "setting": "[39]", "value": 1430, "unit": "nM"}, {"measurement": "TGI", "setting": "[39]", "value": 11800, "unit": "nM"}, {"measurement": "GI50", "setting": "[40]", "value": 1030, "unit": "nM"}, {"measurement": "TGI", "setting": "[40]", "value": 2370, "unit": "nM"}, {"measurement": "GI50", "setting": "[41]", "value": 125, "unit": "nM"}, {"measurement": "TGI", "setting": "[41]", "value": 2020, "unit": "nM"}, {"measurement": "GI50", "setting": "[42]", "value": 3230, "unit": "nM"}, {"measurement": "TGI", "setting": "[42]", "value": 15100, "unit": "nM"}, {"measurement": "GI50", "setting": "[43]", "value": 2290, "unit": "nM"}, {"measurement": "TGI", "setting": "[43]", "value": 11400, "unit": "nM"}, {"measurement": "GI50", "setting": "[44]", "value": 1610, "unit": "nM"}, {"measurement": "TGI", "setting": "[44]", "value": 11900, "unit": "nM"}, {"measurement": "GI50", "setting": "[45]", "value": 1590, "unit": "nM"}, {"measurement": "TGI", "setting": "[45]", "value": 16900, "unit": "nM"}, {"measurement": "GI50", "setting": "[46]", "value": 2960, "unit": "nM"}, {"measurement": "TGI", "setting": "[46]", "value": 15900, "unit": "nM"}, {"measurement": "GI50", "setting": "[47]", "value": 1260, "unit": "nM"}, {"measurement": "TGI", "setting": "[47]", "value": 11500, "unit": "nM"}]}]}
